Assay results: the supplement of paper PMC6045584
± gives the standard deviation of the averaged measurements.

Compound: CN(C)CC[C@H](CSc1ccccc1)Nc1ccc(S(=O)(=O)NC(=O)c2ccc(N3CCN(Cc4ccccc4-c4ccc(Cl)cc4)CC3)cc2)cc1[N+](=O)[O-] [ABT-737]
Assay: surviving fraction relative to DMSO-only wells; higher = less growth inhibition
Conditions: 0.5 nM; exposure time: 5 days
How it was run: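 Luminescence normalised to the median of DMSO-only wells defines surviving fraction, with viability read by CellTiter-Glo. Signal was recorded after 10 minutes at room temperature, once log-phase tumour cell lines seeded at 250–500 cells per well in 384-well plates had spent 24 hours settling and then five days under continuous exposure to inhibitors at 0.5, 1, 5, 10, 50, 100, 500 and 1000 nM.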

Row | Test System | surviving fraction
1 | SCC36 HEADNECK | 1.08 ± 0.18
2 | OS25HAL BONE | 0.984 ± 0.048
3 | HCC1806 BREAST | 1.06 ± 0.057
4 | HU09 BONE | 1.08 ± 0.08
5 | SG43 HEADNECK | 0.947 ± 0.12
6 | U2OS BONE | 1.04 ± 0.048
7 | HOSMNG BONE | 0.879 ± 0.057
8 | CASKI CERVIX | 0.912 ± 0.075
9 | SUM44 BREAST | 1.28 ± 0.43
10 | MDAMB231 BREAST | 1 ± 0.031
11 | CAL51 BREAST | 1.03 ± 0.062
12 | MDAMB436 BREAST | 0.985 ± 0.085
13 | HSSYII SYNOVIAL | 1.03 ± 0.064
14 | RDES SOFT TISSUE | 1.26 ± 0.093
15 | MDAMB157 BREAST | 1.02 ± 0.026
16 | CHLA90 AUTONOMIC GANGLIA | 0.98 ± 0.054
17 | CADOES1 SOFT TISSUE | 0.92 ± 0.1
18 | SG31 HEADNECK | 1.2 ± 0.19
19 | SCC47 HEADNECK | 1.14 ± 0.033
20 | S68 BREAST | 1.25 ± 0.083
21 | SNU475 LIVER | 1.07 ± 0.017

Row | Test System | surviving fraction
22 | 22RV1 PROSTATE | 0.997 ± 0.07
23 | SG32 HEADNECK | 1.02 ± 0.13
24 | SCC003 HEADNECK | 1.11 ± 0.067
25 | JURKAT HAEMATOPOIETIC AND LYMPHOID TISSUE | 1.04 ± 0.026
26 | HT1080 SOFT TISSUE | 1.06 ± 0.045
27 | CAL120 BREAST | 0.984 ± 0.03
28 | MCF7 BREAST | 0.9422 ± 0.0083
29 | MFM223 BREAST | 1.39 ± 0.39
30 | LNCAP PROSTATE | 0.971 ± 0.034
31 | PCI30 HEADNECK | 1.12 ± 0.029
32 | OSHN BONE | 1.09 ± 0.026
33 | SG28 HEADNECK | 1.25 ± 0.068
34 | HOS BONE | 1.01 ± 0.028
35 | HUO3N1 BONE | 1.03 ± 0.027
36 | BT20 BREAST | 1.2 ± 0.061
37 | SJSA1 BONE | 1.59 ± 0.063
38 | JIMT1 BREAST | 1.02 ± 0.048
39 | HCC78 LUNG | 0.9693 ± 0.0035
40 | NY BONE | 0.986 ± 0.029
41 | NOS1 BONE | 1.07 ± 0.093

Same assay, conditions: 1 nM; exposure time: 5 days

Row | Test System | surviving fraction
42 | SCC36 HEADNECK | 1.03 ± 0.054
43 | OS25HAL BONE | 1.07 ± 0.035
44 | HCC1806 BREAST | 1.02 ± 0.15
45 | HU09 BONE | 1.07 ± 0.12
46 | SG43 HEADNECK | 1.06 ± 0.25
47 | U2OS BONE | 1.04 ± 0.026
48 | HOSMNG BONE | 0.942 ± 0.099
49 | CASKI CERVIX | 0.896 ± 0.038
50 | SUM44 BREAST | 1.31 ± 0.53
51 | MDAMB231 BREAST | 0.99 ± 0.018
52 | CAL51 BREAST | 0.941 ± 0.066
53 | MDAMB436 BREAST | 1.09 ± 0.041
54 | HSSYII SYNOVIAL | 0.999 ± 0.044
55 | RDES SOFT TISSUE | 1.17 ± 0.053
56 | MDAMB157 BREAST | 0.995 ± 0.13
57 | CHLA90 AUTONOMIC GANGLIA | 0.955 ± 0.068
58 | CADOES1 SOFT TISSUE | 0.85 ± 0.18
59 | SG31 HEADNECK | 1.51 ± 0.051
60 | SCC47 HEADNECK | 1.13 ± 0.13
61 | S68 BREAST | 1.04 ± 0.045
62 | SNU475 LIVER | 1 ± 0.018

Row | Test System | surviving fraction
63 | 22RV1 PROSTATE | 1.13 ± 0.22
64 | SG32 HEADNECK | 0.981 ± 0.024
65 | SCC003 HEADNECK | 1.17 ± 0.03
66 | JURKAT HAEMATOPOIETIC AND LYMPHOID TISSUE | 1.04 ± 0.029
67 | HT1080 SOFT TISSUE | 1.06 ± 0.018
68 | CAL120 BREAST | 0.9688 ± 0.0083
69 | MCF7 BREAST | 0.957 ± 0.048
70 | MFM223 BREAST | 1.4 ± 0.37
71 | LNCAP PROSTATE | 0.971 ± 0.041
72 | PCI30 HEADNECK | 1.09 ± 0.061
73 | OSHN BONE | 1.1 ± 0.018
74 | SG28 HEADNECK | 1.17 ± 0.064
75 | HOS BONE | 1.03 ± 0.013
76 | HUO3N1 BONE | 1.07 ± 0.012
77 | BT20 BREAST | 1.19 ± 0.089
78 | SJSA1 BONE | 1.68 ± 0.045
79 | JIMT1 BREAST | 1.05 ± 0.016
80 | HCC78 LUNG | 0.955 ± 0.076
81 | NY BONE | 1.02 ± 0.032
82 | NOS1 BONE | 1.05 ± 0.085

Same assay, conditions: 5 nM; exposure time: 5 days

Row | Test System | surviving fraction
83 | SCC36 HEADNECK | 1.15 ± 0.028
84 | OS25HAL BONE | 0.975 ± 0.028
85 | HCC1806 BREAST | 1.16 ± 0.081
86 | HU09 BONE | 1.1 ± 0.0064
87 | SG43 HEADNECK | 0.889 ± 0.076
88 | U2OS BONE | 1.06 ± 0.055
89 | HOSMNG BONE | 0.888 ± 0.06
90 | CASKI CERVIX | 0.9707 ± 0.0083
91 | SUM44 BREAST | 1.32 ± 0.44
92 | MDAMB231 BREAST | 1.01 ± 0.014
93 | CAL51 BREAST | 1.07 ± 0.031
94 | MDAMB436 BREAST | 1.05 ± 0.14
95 | HSSYII SYNOVIAL | 0.99 ± 0.043
96 | RDES SOFT TISSUE | 1.13 ± 0.074
97 | MDAMB157 BREAST | 0.952 ± 0.069
98 | CHLA90 AUTONOMIC GANGLIA | 0.961 ± 0.043
99 | CADOES1 SOFT TISSUE | 0.915 ± 0.1
100 | SG31 HEADNECK | 1.08 ± 0.21
101 | SCC47 HEADNECK | 1.23 ± 0.09
102 | S68 BREAST | 1.04 ± 0.28
103 | SNU475 LIVER | 1.08 ± 0.083

Row | Test System | surviving fraction
104 | 22RV1 PROSTATE | 1.03 ± 0.063
105 | SG32 HEADNECK | 1.04 ± 0.11
106 | SCC003 HEADNECK | 1.16 ± 0.032
107 | JURKAT HAEMATOPOIETIC AND LYMPHOID TISSUE | 1.05 ± 0.024
108 | HT1080 SOFT TISSUE | 1.05 ± 0.022
109 | CAL120 BREAST | 0.981 ± 0.051
110 | MCF7 BREAST | 0.993 ± 0.02
111 | MFM223 BREAST | 1.36 ± 0.35
112 | LNCAP PROSTATE | 0.932 ± 0.065
113 | PCI30 HEADNECK | 1.09 ± 0.096
114 | OSHN BONE | 1.08 ± 0.014
115 | SG28 HEADNECK | 1.02 ± 0.07
116 | HOS BONE | 1.03 ± 0.026
117 | HUO3N1 BONE | 1.1 ± 0.041
118 | BT20 BREAST | 1.15 ± 0.06
119 | SJSA1 BONE | 1.63 ± 0.06
120 | JIMT1 BREAST | 1.019 ± 0.0045
121 | HCC78 LUNG | 0.969 ± 0.1
122 | NY BONE | 1.09 ± 0.064
123 | NOS1 BONE | 1.32 ± 0.035

Same assay, conditions: 10 nM; exposure time: 5 days

Row | Test System | surviving fraction
124 | SCC36 HEADNECK | 1.13 ± 0.056
125 | OS25HAL BONE | 1.02 ± 0.025
126 | HCC1806 BREAST | 1.207 ± 0.008
127 | HU09 BONE | 1.06 ± 0.065
128 | SG43 HEADNECK | 0.875 ± 0.057
129 | U2OS BONE | 1.04 ± 0.012
130 | HOSMNG BONE | 0.893 ± 0.073
131 | CASKI CERVIX | 0.937 ± 0.021
132 | SUM44 BREAST | 1.3 ± 0.53
133 | MDAMB231 BREAST | 1.01 ± 0.018
134 | CAL51 BREAST | 1.04 ± 0.02
135 | MDAMB436 BREAST | 0.972 ± 0.16
136 | HSSYII SYNOVIAL | 0.972 ± 0.045
137 | RDES SOFT TISSUE | 0.98 ± 0.036
138 | MDAMB157 BREAST | 0.964 ± 0.062
139 | CHLA90 AUTONOMIC GANGLIA | 0.99 ± 0.091
140 | CADOES1 SOFT TISSUE | 0.874 ± 0.039
141 | SG31 HEADNECK | 1.04 ± 0.025
142 | SCC47 HEADNECK | 1.25 ± 0.05
143 | S68 BREAST | 1.15 ± 0.047
144 | SNU475 LIVER | 1.05 ± 0.064

Row | Test System | surviving fraction
145 | 22RV1 PROSTATE | 0.995 ± 0.079
146 | SG32 HEADNECK | 1.17 ± 0.15
147 | SCC003 HEADNECK | 1.09 ± 0.021
148 | JURKAT HAEMATOPOIETIC AND LYMPHOID TISSUE | 1.02 ± 0.028
149 | HT1080 SOFT TISSUE | 1.07 ± 0.045
150 | CAL120 BREAST | 0.984 ± 0.061
151 | MCF7 BREAST | 1 ± 0.039
152 | MFM223 BREAST | 1.52 ± 0.56
153 | LNCAP PROSTATE | 0.882 ± 0.025
154 | PCI30 HEADNECK | 1.07 ± 0.026
155 | OSHN BONE | 1.09 ± 0.014
156 | SG28 HEADNECK | 1.081 ± 0.0014
157 | HOS BONE | 1.03 ± 0.02
158 | HUO3N1 BONE | 1.1 ± 0.035
159 | BT20 BREAST | 1.26 ± 0.06
160 | SJSA1 BONE | 1.72 ± 0.049
161 | JIMT1 BREAST | 1.018 ± 0.0065
162 | HCC78 LUNG | 1.08 ± 0.15
163 | NY BONE | 1.09 ± 0.03
164 | NOS1 BONE | 1.14 ± 0.048
